Assay results taken from US5432172A, “Biological applications of alkaloids derived from the tunicate Eudistoma sp” (The Research Foundation of State University of New York, priority 1993, dated 1995).
“Also recorded” adds a separate entry of the source. Like-named read-outs stand apart in the source and are kept apart here.

Columns and labels:
[1] = test system: neuroblastoma N1E-115 cells; assay: Growth and morphological differentiation of mouse neuroblastoma N1E-115 cells; details: for range of effective concentrations that inhibited cell proliferation and induced morphological differentiation / effects on cell appearance: N1E-115 cells; for range of effective concentrations that inhibited cell proliferation and induced morphological differentiation: below range no noticeable effect, above range cytotoxic; for effects on cell appearance: morphology; for most effective concentration for the cells tested: summary, cells tested in the present invention; for effects on cell growth and differentiation / effect on cell division and morphological differentiation / long-term effect on cell division: single application; for effect on cell division and morphological differentiation: 3 days; for long-term effect on cell division: 6 days
Experimental: A,B: Untreated cells, 3 (A) and 8 (B) days after subculture. C,D: Cells grown for 3 (C) and 8 (D) days with 12.8 μM Debromoshermilamine. E,F: Cells grown for 7 days with Isosegoline A (39 μM) and Norsegoline (16.3 μM), respectively.
A,B: Untreated cells 3 (A) and 6 (B) days after subculture. C,D: Cells grown for 3 (C) and 6 (D) days with 50 μM forskolin. E,F: Cells grown for 3 (E) and 6 (F) days with 39 μM Segoline A. G,H: Cells grown for 3 (G) and 6 (H) days with 0.14 μM Eilatin.
Cells were grown for six days in the absence of drugs (A), or in the presence of: 10 μM 4-methylpyrido[2,3,4-kl]acridine (B), 4 μM pyrido[2,3,4-kl]acridine (C), 0.08 μM Eilatin (D), 75 μM forskolin (E).
The inventors chose the neuroblastoma N1E-115 cells because these tumor-derived cells can be induced to express characteristic neuronal properties by a variety of procedures see Spector, "Electrophysiology of clonal nerve cell lines. In: Excitable Cells in Tissue Culture", Nelson et al. eds., Plenum, New York 247-277 (1981) and can serve as a useful experimental system in which to explore the effects of the Eudistoma alkaloids on the biological properties of both cancer cells and neuronal cells.
The N1E-115 cells were exposed to various concentrations of the six (6) natural products shown in FIG. 1, and of the two synthetic pyridoacridines shown in Scheme III of FIG. 2. […] A,B: Untreated cells, 3 (A) and 8 (B) days after subculture. C,D: Cells grown for 3 (C) and (8) days with 12.8 μM Debromoshermilamine. E,F: Cells grown for 7 days with Isosegoline A (39 μM) and Norsegoline (16.3 μM), respectively. FIG. 5 illustrates the appearance of N1E-115 cells 6 days after replating in the absence (A) and in the presence of 10 μM 4-methylpyrido[2,3,4-kl]acridine (B), or 4 μM pyrido[2,3,4-kl]acridine.

[2] = test system: normal hamster fibroblast NIL8 cell line; assay: Growth and morphology of normal NIL8 fibroblast cells; assay type: cell-based; details: single application
[3] = test system: type II cAMP-dependent protein kinase; details: literature; cited from earlier work
[4] = test system: pyruvate kinase; assay: Pyruvate kinase activity in cultured rat hepatoma FAO cells; assay type: cell-based; details: for Km: control 0.14, read-out: Km for the substrate phosphoenolpyruvate (PEP)
Experimental: FIG. 11 is a graph showing the effects of the Eudistoma alkaloids on pyruvate kinase activity in cultured rat hepatoma FAO cells. Enzyme activity v/Vmax was assayed as described in Example IV in partially purified extracts from cells incubated for 1 h in the absence ( ) or presence of 100 μM CPT-cAMP (.cndot.) and 26 μM segoline A ( ) as a function of substrate concentrations (phosphoenolpyruvate, PEP).
1. Activity of pyruvate kinase--a key glycolytic enzyme whose activity is inhibited by cAMP-dependent phosphorylation.
FIG. 11 is a graph showing the effects of the Eudistoma alkaloids on pyruvate kinase activity in cultured rat hepatoma FAO cells. Enzyme activity v/Vmax was assayed in partially purified extracts from cells incubated for 1 h in the absence (squares) or presence of 100 μM 8-(4-chlorophenylthio) cyclic AMP (CPT-cAMP)-CPT-cAMP (circles) and 26 μM Segoline A (triangles) as a function of substrate concentrations (phosphoenolpyruvate, PEP).

[5] = test system: normal hamster fibroblast NIL8 cell line; assay: Growth and morphology of normal NIL8 fibroblast cells; assay type: cell-based
Experimental: Cells were grown for 5 days in the absence of drugs (A), and in the presence of 25 μM forskolin (B), 1.4 μM Eilatin (C), or 12.8 μM Debromoshermilamine (D). […]
As illustrated, a single application of 1.4 μM Eilatin or 12.8 μM Debromoshermilamine to NIL8 cells produced effects which are strikingly similar to those obtained by chronically treating time cells with agents that elevate or mimic cAMP. […] This predilection towards cancer cells is a very desirable property in developing potential drugs for the treatment of cancer.

[6] = test system: NIL8-HSV cells
Experimental: A-D Cells grown for 6 days in the absence of drugs (A), or in the presence of 75 μM forskolin (B), 13 μM Segoline B (C) or 0.21 μM Eilatin (D). E and F show the appearance of the Segoline B- and Eilatin-treated cells, 7 days after removal of the toxins.
A: F-actin staining in control cells. B: F-actin staining in a cell treated for 4 days with 13 μM Segoline B.
Cells were grown for 6 days in the absence of drugs (A), or in the presence of 10 μM 4-methylpyrido[2,3,4-kl]acridine (B), 4 μM pyrido[2,3,4-kl]acridine (C), 0.08 μM eilatin (D), or 75 μM forskolin (E).
As reviewed by Willingham, Int. Rev. […] Transformed fibroblasts which display altered growth patterns and aberrant morphologies respond to cAMP elevation by restoration of many normal aspects of growth and morphology, a phenomenon known as "cAMP-mediated reverse transformation" as described by Lockwood et al., J. Cell. Biochem., 33, 237-255 (1987).
A-D show cells grown for 6 days in the absence of drugs (A), or in the presence of 75 μM forskolin (B), 13 μM Segoline B (C) or 0.21 μM Eilatin (D). E and F show the appearance of the Segoline B- and Eilatin-treated cells, 7 days after removal of the toxins.
A: F-actin staining in control cells.

[7] = 1.4 μM Eilatin, 5 days, single application

Structure (SMILES): COc1cc2c3c4c(ccnc14)-c1ccccc1N3C(C)C1(C)C(=O)NC(=O)C21 (single isomer, unassigned) [Isosegoline A]
- range of effective concentrations that inhibited cell proliferation and induced morphological differentiation [1]: 12-52 μM
- effects on cell appearance [1]: flattened cell bodies as well as numerous long neurites
- most effective concentration for the cells tested [1]: 12 to 52 µM

Structure (SMILES): Cc1ccc2c3c(ccnc13)-c1ccccc1N2 [4-methylpyrido[2,3,4-kl]acridine]
- range of effective concentrations that inhibited cell proliferation and induced morphological differentiation [1]: 7.5-12.5 μM
- effects on cell appearance [1]: most neurites were short
- most effective concentration for the cells tested [1]: 7.5 to 12.5 µM
- effect on NIL8 cells ([2]; 10 μM 4-methylpyrido[2,3,4-kl]acridine, 6 days): effects which were similar to those produced by the natural alkaloids

Structure (SMILES): Nc1ncnc2c1nc(Cl)n2[C@@H]1O[C@@H]2COP(=O)(O)O[C@H]2[C@H]1O [8-chloro-cAMP, reference compound]
- effects on cell growth and differentiation ([1]; 8-chloro cAMP 250 μM): transient effects
- preferential binding to type II cAMP-dependent protein kinase [3]: bind preferentially to type II cAMP-dependent protein kinase

Structure (SMILES): Nc1ncnc2c1nc(Sc1ccc(Cl)cc1)n2[C@@H]1O[C@@H]2COP(=O)(O)O[C@H]2[C@H]1O [CPT-cAMP, 8-(4-chlorophenylthio) cyclic AMP, reference compound]
- effects on cell growth and differentiation ([1]; CPT-cAMP 250-500 μM): transient effects
- Km ([4]; 100 μM CPT-cAMP, 1 h): 520 µM
- preferential binding to type II cAMP-dependent protein kinase [3]: bind preferentially to type II cAMP-dependent protein kinase

Structure (SMILES): c1ccc2c(c1)nc1c3nc4ccccc4c4ccnc(c5nccc2c51)c43 [Eilatin]
- differentiation in N1E-115 cells ([1]; 0.08 μM Eilatin): produced differentiation in N1E-115 cells
- effect on cell division and morphological differentiation ([1]; 0.14 μM Eilatin): inhibited cell division and induced morphological differentiation
- long-term effect on cell division ([1]; 0.14 μM Eilatin): cell division is completely blocked
- toxicity to transformed cells ([1]; 1.4 μM Eilatin, N1E-115 ("both the transformed cell lines")): toxic to both the transformed cell lines
- range of effective concentrations that inhibited cell proliferation and induced morphological differentiation [1]: 0.05-0.5 μM
- effects on cell appearance [1]: flattened cell bodies as well as numerous long neurites
- potency relative to the other five naturally occurring compounds and the synthetic pyridoacridines ([1]; actions at the cellular level): 100 times
- most effective concentration for the cells tested [1]: 0.05 to 0.5 µM
- effect on cell shape of NIL8 cells [5, 7]: more elongated
- effect on growth of NIL8 cells [5, 7]: growth was inhibited
- effect on normal cells ([5]; at concentrations that induce differentiation and reverse transformation of transformed cells): no effect on normal cells
- cytotoxicity to transformed cells versus normal cells [6]: more cytotoxic to transformed cells than to normal cells
- reverse transformation in NIL8-HSV cells ([6]; 0.08 μM Eilatin): reverse transformation in NIL8-HSV cells
- reversal of the effects of transformation ([6]; 0.21 μM Eilatin, one application): permanently reverse the effects of transformation
- effects on cell shape and actin organization ([6]; 0.21 μM Eilatin, FIG. 8D): became large and flat and showed the typical network of stress fibers
- growth and morphology after drug removal ([6]; 7 days after removal of 0.21 μM Eilatin): maintained their reduced growth and flattened morphology
- effect on NIL8 cells ([2]; 0.08 μM Eilatin): no effects on NIL8 cells; also recorded: did not exert any effect on the normal NIL8 cells

Structure (SMILES): COC(=O)c1cc(OC)c2nccc3c2c1Nc1ccccc1-3 [Norsegoline]
- range of effective concentrations that inhibited cell proliferation and induced morphological differentiation [1]: 8-40 μM
- effects on cell appearance [1]: relatively small cell bodies and numerous long neurites
- most effective concentration for the cells tested [1]: 8 to 40 µM
- Km ([4]; concentration of alkaloid not given): 400 µM
- inhibition of pyruvate kinase activity ([4]; submaximal substrate concentrations): inhibit pyruvate kinase activity
- rise in the Km for substrate (phosphoenolpyruvate) ([4]; versus control): ca. 3 fold

Structure (SMILES): COc1cc2c3c4c(ccnc14)-c1ccccc1N3C1(C)C(=O)NC(=O)C2C1C (centres unmarked) [Segoline B]
- reversal of the effects of transformation ([6]; 13 μM Segoline B, one application): permanently reverse the effects of transformation
- effects on cell shape and actin organization ([6]; 13 μM Segoline B, FIGS. 8C, 9B): became large and flat and showed the typical network of stress fibers
- growth and morphology after drug removal ([6]; 7 days after removal of 13 μM Segoline B): maintained their reduced growth and flattened morphology

Structure (SMILES): C=C[C@@]1(C)CC(=O)[C@]2(O)[C@@]3(C)[C@@H](O)CCC(C)(C)[C@@H]3[C@H](O)[C@H](OC(C)=O)[C@@]2(C)O1 [forskolin, reference compound]
- effect on cell division and morphological differentiation ([1]; 50 μM forskolin): inhibited cell division and induced morphological differentiation
- long-term effect on cell division ([1]; 50 μM forskolin): became confluent like the control cells
- effect on NIL8 cells ([5]; 25 μM forskolin, 5 days, single application): the cells reached the high saturation densities typical of untreated cultures
- long-term effect on transformed phenotype ([6]; 75 μM forskolin, 6 days (FIG. 8B)): reverted to the transformed phenotype
- reversal of the effects of transformation ([6]; forskolin 50-100 μM, single application, data not shown): transiently reverse the effects of transformation

Structure (SMILES): c1ccc2c(c1)Nc1cccc3nccc-2c13 [pyrido[2,3,4-kl]acridine]
- range of effective concentrations that inhibited cell proliferation and induced morphological differentiation [1]: 2-5 μM
- effects on cell appearance [1]: flattened cell bodies as well as numerous long neurites
- most effective concentration for the cells tested [1]: 2 to 5 µM
- effect on NIL8 cells ([2]; 4 μM pyrido[2,3,4-kl]acridine, 6 days): effects which were similar to those produced by the natural alkaloids
